Literature values, collected in patent US20030003013A1, “Disinfectant composition and method for disinfecting and/or sterilising a dental unit” ([…].p.A., priority 2001, published 2003).

Test system: bacteria and spores on a surface / water line of a dental unit

**Q.** With `O=CCCCC=O` [glutaraldehyde] as the compound, how does the “contact time to reach the sporicidal level required to achieve sterility” value (glutaraldehyde) read?
**A.** Its value is “five”.

**Q.** What about the “contact time for high-level disinfection” value (glutaraldehyde left in contact with a surface before flushing out) of the same compound?
**A.** The value was “twenty to thirty”.

**Q.** What about the “contact time to disinfect a surface” value (glutaraldehyde left in contact with the surface before flushing out) of the same compound?
**A.** The value was “approximately five”.
